The structures appear in SMILES notation. Values joined by “and” are separate entries in the source; they are usually repeats but may differ in a detail not shown here. Equal values may be shown once.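 Step 1: Grow cells in 96-well plates. Step 2: Expose to compound for 48 hours at 5 concentrations. Step 3: Interpolate endpoints linearly; if unreached, use highest concentration. GI50 = concentration required for 50% inhibition of growth. The concentration for full growth arrest is given as TGI.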

Common to all, as to assay: inhibition of tumour cell growth, NCI panel, 48 h
In experiment [1] the test system is MALME-3M melanoma.
In experiment [2] the test system is SW-620 colon.
In experiment [3] the test system is MOLT-4 leukemia.
Experiment [4] concerns NCI-H23 lung.
The test system of experiment [5] is HOP-92 NSCLC.
Experiment [6] concerns SK-MEL-5 melanoma.
The test system of experiment [7] is K-562 leukemia.
Experiment [8] deals with SNB-19 CNS.
The subject of experiment [9] is NCI-H460 lung.
In experiment [10] the test system is MDA-MB-435.

As to `O=c1oc2cc(O)ccc2c2oc3cc(O)ccc3c12`, the TGI in experiment [1] is over 125 µM; in experiment [2], over 125 µM; in experiment [3], 83.3 µM; in [4], over 125 µM; in experiment [5], over 125 µM; in experiment [6], 69.9 µM. In addition, the TGI in [7] was over 125 µM; in experiment [8] it was 91.7 µM; in [9], over 113 µM.
As to `CC(=O)OCC1=CC2OC(=O)C3=COC(OC4OC(CO)C(O)C(O)C4O)C1C32` (centres undefined), the TGI in [2], in experiment [4], in [5], in experiment [10], in experiment [6] and in experiment [8] was over 100 µM throughout.
For `C1=CC=C2NCCc3cccc(c3)CCNC3=CC=CC=CC3=NCCCCCCN=C2C=C1`, the TGI in [1] was over 100 µM; in experiment [2] it was 80.7 µM; in experiment [3], 38.3 µM; in [4] it was 48.3 µM; in [5], 54 µM; in experiment [7] it was over 100 µM. The TGI in [8] is over 100 µM; in experiment [9], 25.3 µM.
As to `COc1nc2ccc(CNc3ccc(C(=O)NC(CCC(=O)O)C(=O)O)cc3)cc2nc1OC` (centres undefined), the TGI in experiment [1], in experiment [2], in experiment [3], in [4], in [10] and in experiment [6] was over 100 µM throughout. Besides, the TGI in experiment [7], in experiment [8] and in experiment [9] was over 100 µM each time.
`CC(=O)OC12CC[N+]3(C)CCCCC3C1=Nc1ccccc12` (centres undefined): the TGI in experiment [1], in [2], in [3], in experiment [4], in experiment [5] and in [10] was over 100 µM each time. The TGI in experiment [6], in [7], in experiment [8] and in experiment [9] was over 100 µM throughout.
With `N#Cc1ccc([N+](=O)[O-])cc1NC(N)=S`, the TGI in experiment [1], in [2], in [3], in [5], in experiment [6] and in experiment [8] was over 100 µM each time.
Turning to `COc1cc2c3c(n(CCCn4cncn4)c(=O)c2cc1OC)-c1cc2c(cc1C3=O)OCO2`, the GI50 in experiment [1] was 1.36 µM; in [2], 1.08 µM; in experiment [3], under 0.01 µM; in experiment [4], 0.0906 µM; in experiment [5] it was 0.935 µM; in experiment [10], over 100 µM. The GI50 in experiment [6] is 0.671 µM; in [7], 1.49 µM; in experiment [9] it was under 0.01 µM. The TGI was over 48.1 µM in experiment [1]; over 100 µM in [2]; 0.242 µM in experiment [3]; 57.5 µM in [4]; 38.6 µM in experiment [5]; over 100 µM in experiment [10]. In addition, the TGI in experiment [6] is 31 µM; in experiment [7], 28.1 µM; in [8], over 100 µM; in experiment [9], over 100 µM.
With `CCCCC(=O)c1c(O)ccc2c(C)cc(=O)oc12`, the TGI in experiment [1], in experiment [2], in experiment [3], in [4], in experiment [5] and in [10] was over 100 µM throughout. Further, the TGI in experiment [6], in experiment [7], in [8] and in [9] was over 100 µM throughout.
As to `CCOc1ccccc1Nc1ccc(N)cc1S(=O)(=O)O`, the TGI in experiment [1], in [2], in [3], in experiment [4], in [5] and in [10] was over 100 µM each time. The TGI in experiment [6], in experiment [7], in experiment [8] and in [9] was over 100 µM each time.
With `COc1ccc(C(=O)CCN(C)C)c2ccccc12`, the TGI in experiment [1] amounted to 34.4 µM; in experiment [2], 49.3 µM; in [3], 46 µM; in [4] it was 51.4 µM; in [5] it was 41.9 µM; in experiment [10], 48.1 µM. Further, the TGI in experiment [6] was over 100 µM; in experiment [7], 60 µM; in experiment [8] it was over 100 µM; in experiment [9], over 100 µM.
Consider `CC1(O)C2(c3ccccc3)CCC[N+]1(C)CC2` (centres undefined), for which the TGI in experiment [1], in experiment [2], in experiment [3], in [4], in [5] and in experiment [10] was over 100 µM each time. Besides, the TGI in experiment [6], in [7], in [8] and in experiment [9] was over 100 µM each time.
For `CC[C@@]1(O)C[C@H](OC2CC(N(C)C)C(OC3CC(O)C(OC4CCC(=O)C(C)O4)C(C)O3)C(C)O2)c2c(cc3c(c2O)C(=O)c2c(O)cccc2C3=O)C1C(=O)OC` (some centres undefined), the TGI in [1] is 0.0948 µM and 0.569 µM; in experiment [3] it was 0.655 µM; in experiment [4] it was 0.635 µM; in [5] it was 0.0897 µM; in [6], 0.189 µM and 0.478 µM; in [9], 1.42 µM. Also, the GI50 in experiment [3] was 0.00383 µM.
With `Nc1nc(SCCNC(=O)CCc2ccc(O)c(I)c2)nc2c1ncn2C1OC(CO)C(O)C1O` (centres undefined), the TGI in experiment [1], in experiment [2], in experiment [3], in experiment [4], in experiment [5] and in [6] was over 100 µM throughout. Also, the TGI in experiment [7], in experiment [8] and in experiment [9] was over 100 µM in each case.
For the molecule `[C-]#[N+]C(=C\c1ccc(O)cc1)/C(=C/c1ccc(O)cc1)[N+]#[C-]`, the TGI in [1] was 4.39 µM; in experiment [2], over 34.3 µM; in experiment [3], 7.67 µM; in experiment [4] it was 5.93 µM; in experiment [5], over 100 µM; in experiment [10], over 19.8 µM. Moreover, the TGI was 5.36 µM in experiment [6], over 100 µM in [7], over 100 µM in experiment [8] and over 28.6 µM in experiment [9].
Consider `O=C1CCCCN1`, for which the TGI in experiment [1], in experiment [2], in experiment [3], in [4], in experiment [5] and in [6] was over 1120 µM each time. In addition, the TGI in experiment [7], in experiment [8] and in experiment [9] was over 1120 µM throughout.
As for `C=CCn1c(=O)c(Br)nn(CCOCP(=O)(OCC)OCC)c1=O`, the TGI in [1], in experiment [2], in experiment [3], in experiment [4], in [5] and in [10] was over 100 µM each time. For the same molecule, the TGI in [6], in experiment [7], in experiment [8] and in [9] was over 100 µM in each case.
For `CC(C)CNCCc1ccccn1`, the TGI in experiment [1], in [2], in experiment [4], in experiment [5], in [10] and in experiment [6] was over 100 µM throughout. The TGI in experiment [8] and in experiment [9] was over 100 µM in each case.
As to `O=Cc1ccccc1CCn1c(=O)c2cc3c(=O)n(CCc4ccccc4C=O)c(=O)c3cc2c1=O`, the TGI in experiment [1], in [2], in experiment [3], in experiment [4], in experiment [6] and in [7] was over 100 µM throughout. The TGI in experiment [8] and in experiment [9] was over 100 µM in each case.
Regarding `CC(C)C1=CC2=CC[C@@H]3[C@](C)(CCC[C@@]3(C)C(=O)O)[C@H]2CC1`, the TGI in [1] was over 100 µM; in [2] it was over 100 µM; in experiment [3], over 75.7 µM; in experiment [4], over 89.9 µM; in experiment [5], over 84.6 µM; in experiment [6], over 94.2 µM. For the same molecule, the TGI in experiment [7], in experiment [8] and in experiment [9] was over 100 µM each time.
Turning to `CN1c2c(nc(N)[nH]c2=O)NCC1CCNc1ccc(C(=O)NC(CCC(=O)O)C(=O)O)cc1` (centres undefined), the TGI is 2770 µM in experiment [1]; 1810 µM in [2]; 2650 µM in experiment [3]; 3630 µM in [4]; 2900 µM in [5]; 1770 µM in experiment [10]. The TGI in experiment [6] is 2470 µM; in experiment [7] it was 841 µM; in experiment [8], 3250 µM; in [9] it was 1570 µM.
As for `CC1=C(SCCO)C(=O)c2ccccc2C1=O`, the TGI in [1] is 27.3 µM; in experiment [2], 33.1 µM; in experiment [3], over 100 µM; in experiment [4], 30.4 µM; in experiment [5], 3.72 µM; in experiment [10] it was 23.9 µM. In addition, the TGI in experiment [6] is 26.6 µM; in experiment [7], over 100 µM; in experiment [8] it was 79.6 µM; in [9], 26.8 µM.
In the case of `c1ccc(SCCc2ccncc2)cc1`, the TGI in experiment [1], in [2], in experiment [3], in [4], in [5] and in experiment [10] was over 100 µM throughout. Besides, the TGI in [6], in [7], in experiment [8] and in experiment [9] was over 100 µM in each case.
On to `CC(=O)OCCCCN1C(=O)CSc2ccccc21`, for which the TGI in experiment [2], in [3], in experiment [5], in experiment [10], in experiment [6] and in [8] was over 100 µM in each case. Also, in experiment [9], the TGI was over 100 µM.
